What was measured:
[1] = Oral bioavailability in rat (dose 30 mg/kg); format: ADME, organism-based; details: in vivo
[2] = In vitro metabolic stability at 5 uM was determined by incubating with human liver microsomes at 37 degree C; format: ADME, Microsome
[3] = Half-life in rat at 30 mg/kg dose administered orally; details: in vivo, po
[4] = Area under curve was evaluated in rat at 3 mg/kg dose administered intravenously; format: ADME, organism-based; set-up: dose 3 mg/kg, route intravenous; details: in vivo, iv
[5] = molecular target: T1, Peroxisome proliferator-activated receptor gamma (Homo sapiens, UniProt P37231)
T1 sequence (P37231 whole entry): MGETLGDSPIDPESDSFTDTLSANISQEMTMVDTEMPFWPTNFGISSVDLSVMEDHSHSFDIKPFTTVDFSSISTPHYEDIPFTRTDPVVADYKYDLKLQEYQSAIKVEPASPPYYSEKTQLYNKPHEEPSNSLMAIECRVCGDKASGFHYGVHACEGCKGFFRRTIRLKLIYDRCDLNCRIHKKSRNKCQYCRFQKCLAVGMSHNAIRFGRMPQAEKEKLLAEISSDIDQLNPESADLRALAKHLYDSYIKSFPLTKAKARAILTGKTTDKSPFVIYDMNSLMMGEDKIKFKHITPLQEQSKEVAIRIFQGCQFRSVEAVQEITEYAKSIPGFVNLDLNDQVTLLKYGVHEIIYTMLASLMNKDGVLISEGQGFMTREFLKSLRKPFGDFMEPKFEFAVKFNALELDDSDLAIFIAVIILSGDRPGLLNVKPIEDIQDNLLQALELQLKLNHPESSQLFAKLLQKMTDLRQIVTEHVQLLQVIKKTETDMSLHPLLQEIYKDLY
Description: Agonistic activity against PPAR (peroxisome proliferator activated receptor gamma) in Suarus chinesis

[6] = Area under curve was evaluated in rat at 30 mg/kg dose administered orally; details: in vivo, po

Structure (SMILES)	EC50 [5] [nM]	other results
CN1C(=O)C(CCOc2ccccc2CC(=O)O)Oc2ccccc21 (centres undefined)	> 5000	
COCCCCN1C(=O)[C@@H](CCOc2ccccc2CC(=O)O)Oc2ccccc21	274	bioavailability [1]: 41%; half-life at 5 µM [2]: > 8.33 h; half-life [3]: 6.7 h; AUC [4]: 88 µM·h
CC(C)N1C(=O)C(CCOc2ccccc2CC(=O)O)Oc2ccccc21 (centres undefined)	> 5000	
CC(O)CCCCN1C(=O)C(CCOc2ccccc2CC(=O)O)Oc2ccccc21 (centres undefined)	1000	
CCCCCCN1C(=O)[C@H](CCOc2ccccc2CC(=O)O)Oc2ccccc21	1200	
CCCN1C(=O)C(CCOc2ccccc2CC(=O)O)Oc2ccccc21 (centres undefined)	~5000	
CC(C)CN1C(=O)C(CCOc2ccccc2CC(=O)O)Oc2ccccc21 (centres undefined)	~5000	
CC(C)(O)CCCCN1C(=O)C(CCOc2ccccc2CC(=O)O)Oc2ccccc21 (centres undefined)	644	
CCCNC(=O)CN1C(=O)C(CCOc2ccccc2CC(=O)O)Oc2ccccc21 (centres undefined)	> 5000	
CC(F)(F)CCCCCN1C(=O)C(CCOc2ccccc2CC(=O)O)Oc2ccccc21 (centres undefined)	534	
CCCCN1C(=O)C(CCOc2ccccc2CC(=O)O)Oc2ccccc21 (centres undefined)	~5000	
CCCCCCCN1C(=O)C(CCOc2ccccc2CC(=O)O)Oc2ccccc21 (centres undefined)	234	
CCCCCCN1C(=O)C(CCOc2ccccc2CC(=O)O)Oc2ccccc21 (centres undefined)	100	bioavailability [1]: 115%; half-life at 5 µM [2]: 0.883 h; half-life [3]: 14 h; AUC [6]: 406 µM·h
CCCCCCN1C(=O)[C@@H](CCOc2ccccc2CC(=O)O)Oc2ccccc21	100	bioavailability [1]: 95%; half-life at 5 µM [2]: 1.22 h; half-life [3]: 14.5 h; AUC [4]: 327 µM·h
CCOCCCN1C(=O)C(CCOc2ccccc2CC(=O)O)Oc2ccccc21 (centres undefined)	~5000	
C/C(CCCCN1C(=O)C(CCOc2ccccc2CC(=O)O)Oc2ccccc21)=N\O (centres undefined)	10	bioavailability [1]: 16%; half-life at 5 µM [2]: 2.47 h; half-life [3]: 4.2 h; AUC [4]: 19.9 µM·h
C=CCCCCN1C(=O)C(CCOc2ccccc2CC(=O)O)Oc2ccccc21 (centres undefined)	208	
CCCCCN1C(=O)C(CCOc2ccccc2CC(=O)O)Oc2ccccc21 (centres undefined)	243	
O=C(O)CCCCN1C(=O)C(CCOc2ccccc2CC(=O)O)Oc2ccccc21 (centres undefined)	> 5000	

Structure (SMILES)	EC50 [5] [nM]	other results
NC(=O)CCCCN1C(=O)C(CCOc2ccccc2CC(=O)O)Oc2ccccc21 (centres undefined)	> 5000	
CCCCCCCCN1C(=O)C(CCOc2ccccc2CC(=O)O)Oc2ccccc21 (centres undefined)	300	
O=C(O)Cc1ccccc1OCCC1Oc2ccccc2N(CCC2CCCCC2)C1=O (centres undefined)	300	
NC(=O)CCCCCN1C(=O)C(CCOc2ccccc2CC(=O)O)Oc2ccccc21 (centres undefined)	~5000	
O=C(O)Cc1ccccc1OCCC1Oc2ccccc2N(CCCCCO)C1=O (centres undefined)	1000	
O=C(O)Cc1ccccc1OCCC1Oc2ccccc2N(CCCC2CCCC2)C1=O (centres undefined)	2700	
O=C(O)Cc1ccccc1OCC[C@@H]1Oc2ccccc2N(CCCCCCF)C1=O	570	
CC(C)(C)CCCCN1C(=O)C(CCOc2ccccc2CC(=O)O)Oc2ccccc21 (centres undefined)	1000	
O=C(O)Cc1ccccc1OCCC1Oc2ccccc2N(CCC2CCCC2)C1=O (centres undefined)	~5000	
CCCSCCN1C(=O)C(CCOc2ccccc2CC(=O)O)Oc2ccccc21 (centres undefined)	380	
O=C(O)Cc1ccccc1OCCC1Oc2ccccc2N(CCO)C1=O (centres undefined)	> 5000	
CCCCCCCCCCN1C(=O)C(CCOc2ccccc2CC(=O)O)Oc2ccccc21 (centres undefined)	1000	
COCCCCN1C(=O)C(CCOc2ccccc2CC(=O)O)Oc2ccccc21 (centres undefined)	274	
CC(C)CCCCN1C(=O)C(CCOc2ccccc2CC(=O)O)Oc2ccccc21 (centres undefined)	79	
O=C(O)Cc1ccccc1OCCC1Oc2ccccc2N(CCCCCCCF)C1=O (centres undefined)	718	
CCN1C(=O)C(CCOc2ccccc2CC(=O)O)Oc2ccccc21 (centres undefined)	> 5000	
CCCCCCCCCN1C(=O)C(CCOc2ccccc2CC(=O)O)Oc2ccccc21 (centres undefined)	~5000	
O=C(O)Cc1ccccc1OCCC1Oc2ccccc2N(CCCCCCO)C1=O (centres undefined)	200	bioavailability [1]: 4%; half-life at 5 µM [2]: 0.95 h; half-life [3]: 0.6 h; AUC [4]: 2.5 µM·h

Further lines, with some results ahead:

EC50 [5] [nM]	Structure (SMILES)	other results
117	O=C(O)Cc1ccccc1OCCC1Oc2ccccc2N(CCCCCCF)C1=O (centres undefined)	bioavailability [1]: 100%; half-life at 5 µM [2]: 1.27 h; half-life [3]: 16 h; AUC [4]: 84 µM·h
> 5000	CNC(=O)CCCN1C(=O)C(CCOc2ccccc2CC(=O)O)Oc2ccccc21 (centres undefined)	
149	O=C(O)Cc1ccccc1OCCC1Oc2ccccc2N(CCCCCCCO)C1=O (centres undefined)	bioavailability [1]: 13%; half-life at 5 µM [2]: 1.27 h; half-life [3]: 7 h; AUC [4]: 2.3 µM·h
1000	CC(F)(F)CCCCN1C(=O)[C@H](CCOc2ccccc2CC(=O)O)Oc2ccccc21	
> 5000	O=C(O)Cc1ccccc1OCCC1Oc2ccccc2N(CC(=O)O)C1=O (centres undefined)	
1000	CC(C)(CCCCN1C(=O)C(CCOc2ccccc2CC(=O)O)Oc2ccccc21)C(=O)O (centres undefined)	
264	CC(=O)CCCCCN1C(=O)C(CCOc2ccccc2CC(=O)O)Oc2ccccc21 (centres undefined)	
> 5000	O=C(O)CCCCCN1C(=O)C(CCOc2ccccc2CC(=O)O)Oc2ccccc21 (centres undefined)	
179	CC(F)(F)CCCCN1C(=O)C(CCOc2ccccc2CC(=O)O)Oc2ccccc21 (centres undefined)	
152	O=C(O)Cc1ccccc1OCC[C@H]1Oc2ccccc2N(CCCCCCF)C1=O	bioavailability [1]: 39%; half-life at 5 µM [2]: 1.85 h; half-life [3]: 7.9 h; AUC [4]: 93 µM·h
> 5000	CS(=O)(=O)NCCCCCCN1C(=O)C(CCOc2ccccc2CC(=O)O)Oc2ccccc21 (centres undefined)	
260	CC(=O)CCCCN1C(=O)C(CCOc2ccccc2CC(=O)O)Oc2ccccc21 (centres undefined)	bioavailability [1]: 27%; half-life at 5 µM [2]: 0.85 h; half-life [3]: 9.8 h; AUC [4]: 5.8 µM·h
359	CC(C)(C#N)CCCCN1C(=O)C(CCOc2ccccc2CC(=O)O)Oc2ccccc21 (centres undefined)	
> 5000	CC(=O)NCCCCCCN1C(=O)C(CCOc2ccccc2CC(=O)O)Oc2ccccc21 (centres undefined)	
~5000	CO/N=C(\C)CCCCN1C(=O)C(CCOc2ccccc2CC(=O)O)Oc2ccccc21 (centres undefined)	
295	CC(F)(F)CCCCN1C(=O)[C@@H](CCOc2ccccc2CC(=O)O)Oc2ccccc21	

From ChEMBL document CHEMBL1148467, “Benzoxazinones as PPARgamma agonists. 2. SAR of the amide substituent and in vivo results in a type 2 diabetes model” (J Med Chem, 2004)
